In US8569292B2, “Cyclic inhibitors of 11β-hydroxysteroid dehydrogenase 1” (Vitae Pharmaceuticals, Inc., priority 2008, dated 2013) one finds IC50, inhibition and Shift data, which are given here for 23 compounds.

Molecules are shown by their SMILES. Bounds are passed on as bounds.

Test [1] has as its target T1, 11β-HSD1 (Homo sapiens, UniProt P28845). Nature of the test: biochemical. Particulars: for inhibition at 0.1 µM: read-out: Average % inhibition at 100 nM.
Test [2] has as its target T1, 11β-HSD1. Put plainly: Biological Test Example 4: microsomal 11β-HSD1 in the presence of 50% human plasma. The settings on record: for Shift: IC50 in Test Example 4 divided by IC50 in Test Example 1.
[3] abbreviates: Biological Test Example 1 IC50 (nM).
Setting [4] is: IC50 Range, Biological Test Example 1.

T1 sequence (P28845 whole entry): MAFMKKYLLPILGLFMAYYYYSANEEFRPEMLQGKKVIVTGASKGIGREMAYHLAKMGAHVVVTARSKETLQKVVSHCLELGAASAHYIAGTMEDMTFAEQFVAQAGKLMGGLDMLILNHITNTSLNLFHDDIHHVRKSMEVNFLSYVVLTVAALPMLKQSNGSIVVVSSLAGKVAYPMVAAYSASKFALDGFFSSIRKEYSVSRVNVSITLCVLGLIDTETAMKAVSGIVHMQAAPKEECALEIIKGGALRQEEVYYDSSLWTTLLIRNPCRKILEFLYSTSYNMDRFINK

Regarding `Cc1nccc(-c2ccc([C@H](C)N3CC[C@](CCCO)(c4ccc(F)cc4)OC3=O)cc2)n1` [EXAMPLE 126, (R)-6-(4-fluorophenyl)-6-(3-hydroxypropyl)-3-((S)-1-(4-(2-methylpyrimidin-4-yl)phenyl)ethyl)-1,3-oxazinan-2-one], the 50% inhibitory concentration (IC50) in test [1] (setting [3]) is 1.5 nM; in test [1] (setting [4]), < 100 nM; in test [2], 13.3 nM. Moreover, the inhibition at 0.1 µM in test [1] amounted to 96.7%. Moreover, the Shift in test [2] was 8.7.
On to `C[C@@H](c1ccc(-c2cccnc2)cc1)N1CC[C@](CCC(N)=O)(c2ccc(F)cc2)OC1=O` [EXAMPLE 41, 3-((R)-6-(4-fluorophenyl)-2-oxo-3-((S)-1-(4-(pyridin-3-yl)phenyl)ethyl)-1,3-oxazinan-6-yl)propanamide], for which the IC50 was 1.9 nM in test [1] (setting [3]), < 100 nM in test [1] (setting [4]) and 11 nM in test [2]. For the same compound, the inhibition at 0.1 µM in test [1] is 96.8%.
`C[C@@H](c1ccc(-c2cncc(C(N)=O)c2)cc1)N1CC[C@](CCCO)(c2ccc(F)cc2)OC1=O` [EXAMPLE 71, 5-(4-((S)-1-((R)-6-(4-fluorophenyl)-6-(3-hydroxypropyl)-2-oxo-1,3-oxazinan-3-yl)ethyl)phenyl)nicotinamide]: the IC50 in test [1] (setting [3]) is 44.1 nM; in test [1] (setting [4]) it was < 100 nM. The inhibition at 0.1 µM in test [1] came out at 68.7%.
`C[C@@H](c1ccc(-c2cnccn2)cc1)N1CC[C@](CCCO)(c2ccc(F)cc2)OC1=O` [EXAMPLE 108, (R)-6-(4-fluorophenyl)-6-(3-hydroxypropyl)-3-((S)-1-(4-(pyrazin-2-yl)phenyl)ethyl)-1,3-oxazinan-2-one]: the results for the half-inhibitory concentration (IC50) in test [1] (setting [3]), in test [1] (setting [4]) and in test [2] were 1.8 nM, < 100 nM and 7.1 nM, respectively. The inhibition at 0.1 µM in test [1] was 98.1%. Besides, the Shift in test [2] was found to be 4.0.
For the compound `C[C@@H](c1ccc(-c2ncc(C(=O)NC3CC3)s2)cc1)N1CC[C@](CC(C)(C)C#N)(c2ccccc2)OC1=O` [EXAMPLE 21, 2-(4-((S)-1-((R)-6-(2-cyano-2-methylpropyl)-2-oxo-6-phenyl-1,3-oxazinan-3-yl)ethyl)phenyl)-N-cyclopropylthiazole-5-carboxamide], the IC50 in test [1] (setting [3]) was 0.4 nM; in test [1] (setting [4]), < 100 nM; in test [2] it was 3.4 nM. In addition, in test [1], the inhibition at 0.1 µM amounted to 99.2%. The Shift in test [2] is 7.8.
Consider `C=CC[C@]1(c2ccccc2)CCN([C@@H](C)c2ccc(-c3cncc(F)c3)cc2)C(=O)O1` [EXAMPLE 46, (R)-6-allyl-3-((S)-1-(4-(5-fluoropyridin-3-yl)phenyl)ethyl)-6-phenyl-1,3-oxazinan-2-one], for which the half-maximal inhibitory concentration (IC50) in test [1] (setting [3]) was 0.8 nM; in test [1] (setting [4]), < 100 nM. Further, the inhibition at 0.1 µM in test [1] came out at 93.4%.
As to `CCOc1cc(-c2ccc([C@H](C)N3CC[C@](CC(C)(C)O)(c4ccccc4)OC3=O)cc2)cc(C)n1` [EXAMPLE 162, (S)-3-((S)-1-(4-(2-ethoxy-6-methylpyridin-4-yl)phenyl)ethyl)-6-(2-hydroxy-2-methylpropyl)-6-phenyl-1,3-oxazinan-2-one], the IC50 was 1.4 nM in test [1] (setting [3]), < 100 nM in test [1] (setting [4]) and 31.7 nM in test [2]. Moreover, in test [1], the inhibition at 0.1 µM came to 87.2%. Moreover, the Shift in test [2] turned out to be 21.9.
The like results for `C[C@@H](c1ccc(-c2ccc(C#N)cn2)cc1)N1CC[C@](CCCO)(c2ccccc2)OC1=O` [EXAMPLE 110, 6-(4-((S)-1-((R)-6-(3-hydroxypropyl)-2-oxo-6-phenyl-1,3-oxazinan-3-yl)ethyl)phenyl)nicotinonitrile] were, in that order, 0.5 nM, < 100 nM, 3.7 nM, 93.9% and 7.7.
On to `Cc1cc(-c2ccc([C@H](C)N3CC[C@](CCCO)(c4ccc(F)cc4)OC3=O)cc2)cc(C)n1` [EXAMPLE 81, (R)-3-((S)-1-(4-(2,6-dimethylpyridin-4-yl)phenyl)ethyl)-6-(4-fluorophenyl)-6-(3-hydroxypropyl)-1,3-oxazinan-2-one], for which the 50% inhibitory concentration (IC50) was 0.6 nM in test [1] (setting [3]) and < 100 nM in test [1] (setting [4]). Further, the inhibition at 0.1 µM in test [1] came to 99.3%.
For `Cc1cc(-c2ccc([C@H](C)N3CC[C@](CCC(C)(C)O)(c4ccc(F)cc4)OC3=O)cc2)ccn1` [EXAMPLE 79, (R)-6-(4-fluorophenyl)-6-(3-hydroxy-3-methylbutyl)-3-((S)-1-(4-(2-methylpyridin-4-yl)phenyl)ethyl)-1,3-oxazinan-2-one], in that order: 28.3 nM, < 100 nM and 76.9%.
On to `CNC(=O)c1cncc(-c2ccc([C@H](C)N3CC[C@](CCCO)(c4ccc(F)cc4)OC3=O)cc2)c1` [EXAMPLE 73, 5-(4-((S)-1-((R)-6-(4-fluorophenyl)-6-(3-hydroxypropyl)-2-oxo-1,3-oxazinan-3-yl)ethyl)phenyl)-N-methylnicotinamide], for which the half-maximal inhibitory concentration (IC50) is 46.9 nM in test [1] (setting [3]) and < 100 nM in test [1] (setting [4]). The inhibition at 0.1 µM in test [1] is 65.3%.
For the compound `C[C@@H](c1ccc(-c2ccc[n+]([O-])c2)cc1)N1CC[C@](CCC(N)=O)(c2ccccc2)OC1=O` [EXAMPLE 50, 3-(4-((S)-1-((R)-6-(3-amino-3-oxopropyl)-2-oxo-6-phenyl-1,3-oxazinan-3-yl)ethyl)phenyl)pyridine 1-oxide], in test [1], the IC50 is < 100 nM and the inhibition at 0.1 µM is 81.2%. Further, the midpoint of inhibition in test [1] (setting [3]), the IC50, lay at 29.1 nM.
`C[C@@H](c1ccc(-c2ccc[n+]([O-])c2)cc1)N1CC[C@](CCC(N)=O)(c2ccc(F)cc2)OC1=O` [EXAMPLE 68, 3-(4-((S)-1-((R)-6-(3-amino-3-oxopropyl)-6-(4-fluorophenyl)-2-oxo-1,3-oxazinan-3-yl)ethyl)phenyl)pyridine 1-oxide]: the IC50 in test [1] (setting [3]) was 85.1 nM; in test [1] (setting [4]), < 100 nM. In test [1], the inhibition at 0.1 µM stood at 50%.
With `Cc1ncc(-c2ccc([C@H](C)N3CC[C@](CCc4nnc(C)o4)(c4ccccc4)OC3=O)cc2)cn1` [EXAMPLE 18, (R)-6-(2-(5-methyl-1,3,4-oxadiazol-2-yl)ethyl)-3-((S)-1-(4-(2-methylpyrimidin-5-yl)phenyl)ethyl)-6-phenyl-1,3-oxazinan-2-one], the half-maximal inhibitory concentration (IC50) in test [1] (setting [3]) and in test [1] (setting [4]) was > 100 nM in each case. Further, the inhibition at 0.1 µM in test [1] came out at 13.7%.
`CC(C)[C@@]1(CC(C)(C)O)CCN([C@@H](C)c2ccc(-c3cnc(C(=O)NC4CC4)nc3)cc2)C(=O)O1` [EXAMPLE 199, N-cyclopropyl-5-(4-((S)-1-((S)-6-(2-hydroxy-2-methylpropyl)-6-isopropyl-2-oxo-1,3-oxazinan-3-yl)ethyl)phenyl)pyrimidine-2-carboxamide]: the IC50 in test [1] (setting [3]) is 63.5 nM; in test [1] (setting [4]), < 100 nM. In addition, in test [1], the inhibition at 0.1 µM turned out to be 62.9%.
The like results for `C[C@@H](c1ccc(-c2ccc(OCC(C)(C)O)nc2)cc1)N1CC[C@](CC(C)(C)O)(c2ccccc2)OC1=O` [EXAMPLE 198, (S)-3-((S)-1-(4-(6-(2-hydroxy-2-methylpropoxy)pyridin-3-yl)phenyl)ethyl)-6-(2-hydroxy-2-methylpropyl)-6-phenyl-1,3-oxazinan-2-one] were, in that order, 1 nM, < 100 nM and 92.4%.
On to `C[C@@H](c1ccc(-c2cncc(C(=O)N(C)C)c2)cc1)N1CC[C@](CCCO)(c2ccc(F)cc2)OC1=O` [EXAMPLE 72, 5-(4-((S)-1-((R)-6-(4-fluorophenyl)-6-(3-hydroxypropyl)-2-oxo-1,3-oxazinan-3-yl)ethyl)phenyl)-N,N-dimethylnicotinamide], for which the results for the IC50 in test [1] (setting [3]) and in test [1] (setting [4]) were 43.5 nM and < 100 nM, respectively. Also, the inhibition at 0.1 µM in test [1] is 64.8%.
For `COc1cc(-c2ccc([C@H](C)N3CC[C@](CC(C)(C)O)(c4ccccc4)OC3=O)cc2)ccn1` [EXAMPLE 210, (S)-6-(2-hydroxy-2-methylpropyl)-3-((S)-1-(4-(2-methoxypyridin-4-yl)phenyl)ethyl)-6-phenyl-1,3-oxazinan-2-one], the IC50 in test [1] (setting [3]) is 0.6 nM; in test [1] (setting [4]) it was < 100 nM.
For the compound `Cc1cc(-c2ccc([C@H](C)N3CC[C@](CCCN4CCCC4=O)(c4ccccc4)OC3=O)cc2)ccn1` [EXAMPLE 104, (R)-3-((S)-1-(4-(2-methylpyridin-4-yl)phenyl)ethyl)-6-(3-(2-oxopyrrolidin-1-yl)propyl)-6-phenyl-1,3-oxazinan-2-one], the IC50 in test [1] (setting [3]) was 9.2 nM; in test [1] (setting [4]), < 100 nM. The inhibition at 0.1 µM in test [1] was 88%.
As for `C[C@@H](c1ccc(-c2ncc(C(C)(C)O)cn2)cc1)N1CC[C@](CC(C)(C)O)(c2ccccc2)OC1=O` [EXAMPLE 29, (S)-6-(2-hydroxy-2-methylpropyl)-3-((S)-1-(4-(5-(2-hydroxypropan-2-yl)pyrimidin-2-yl)phenyl)ethyl)-6-phenyl-1,3-oxazinan-2-one], the concentration for half-maximal inhibition (IC50) in test [1] (setting [3]) is 12.2 nM; in test [1] (setting [4]), < 100 nM. The inhibition at 0.1 µM in test [1] turned out to be 83.8%.
The like results for `C[C@@H](c1ccc(-c2cncc(F)c2)cc1)N1CC[C@](CCC(=O)O)(c2ccc(F)cc2)OC1=O` [EXAMPLE 70, 3-((R)-6-(4-fluorophenyl)-3-((S)-1-(4-(5-fluoropyridin-3-yl)phenyl)ethyl)-2-oxo-1,3-oxazinan-6-yl)propanoic acid] were, in that order, 99.6 nM, < 100 nM and 49.7%.
The like results for `C=CC[C@]1(c2ccc(F)cc2)CCN([C@@H](C)c2ccc(-c3nnc(C)s3)cc2)C(=O)O1` [EXAMPLE 39, (R)-6-allyl-6-(4-fluorophenyl)-3-((S)-1-(4-(5-methyl-1,3,4-thiadiazol-2-yl)phenyl)ethyl)-1,3-oxazinan-2-one] were, in that order, 5.2 nM, < 100 nM and 73.6%.
Turning to `CC1(c2ccccc2)CCN(c2cccc(-c3ccncc3)c2)C(=O)O1` (stereo not shown) [EXAMPLE 33, 6-methyl-6-phenyl-3-(3-(pyridin-4-yl)phenyl)-1,3-oxazinan-2-one], the IC50 was 305 nM in test [1] (setting [3]) and 100 to 1000 nM in test [1] (setting [4]). For the same compound, the inhibition at 0.111 µM in test [1] (read-out: average % inhibition at 111 nM) came out at 37.1%.

Usually IC50 stands for the concentration that gives 50% inhibition. In general, inhibition refers to the percentage by which the read-out fell short of the control.
